# Values quoted from earlier work in patent US20250025420A1, “TERNARY CO-AMORPHOUS FORMS OF DRUGS, PROTEINS, AND WATER-SOLUBLE POLYMERS” (Zerion Pharma APS, priority 2021, published 2025).
# Conditions: stated in Materials
row,SMILES,pKa
1,C=C(C)[C@@H]1CCC(C)=C[C@H]1c1c(O)cc(CCCCC)cc1O [Cannabidiol],9.7
2,C=CC(=O)N1CCC[C@@H](n2nc(-c3ccc(Oc4ccccc4)cc3)c3c(N)ncnc32)C1 [Ibrutinib],3.74
